Here are results for one molecule from patent US9403866B2, “Compositions and methods for increasing telomerase activity” (Telomerase Activation Sciences, Inc., priority 2009, dated 2016).

On the set-up of data set [1]: species or system male Beagle dogs. To be noted: male, Beagle, dog, in vivo, po, 10 mg/kg. How it is done: The plasma level of a compound following a single intravenous and oral administration in male Beagle dogs was determined. Plasma samples were collected and used to determine the plasma concentration of the compound and metabolites. In addition tissue samples, including whisker samples and PBMC cells were collected for telomerase activity analysis.
Male Beagle dogs were divided into treatment groups according to Table 5. The dogs were provided ad libitum SLAC-MO1 #W080701 (Shanghai Laboratories Animal Center, Shanghai, China) throughout the in-life portion of the study with the exception of the overnight fasting period prior to oral dosing. Water was available ad libitum.
The compounds were dissolved in 2% EtOH/98% water […] to yield a final concentration of 2.5 mg/ml and 1 mg/ml for both intravenous and oral administration, respectively. The concentration of each compound was confirmed by HPLC analysis.
Doses were administered intravenously via the left femoral vein and then by oral dosing one week later. Body weights were taken on the day of dose administration. Dose volume was determined based on individual body weight taken on day of dosing.
Blood samples (approximately 250 μL) were collected via right femoral vein into tubes containing K2-EDTA anticoagulant and 1 mg/ml NaF at appropriate time points. Blood was stored on ice and then plasma separated via centrifugation (8000 rpm×6 minutes). The plasma was stored at […] until LC-MS/MS analysis.

In data set [2] the target is T1, telomerase (Homo sapiens, UniProt O14746). The data set is described as follows: Keratinocyte cell/TRAP assay (HEKneo-P cells). In kind it is cell-based. On the set-up: host or cells: HEKneo-P (pooled neonatal human epidermal keratinocytes). From the text:
Harley et al., U.S. Pat. […] Harley et al., U.S. Pat. […] Non-treatment control (NT) was also included. […]

Data set [3] addresses T1, telomerase. Put plainly: Peripheral blood monocyte cell (PBMC)/TRAP assay. The data set is classed as cell-based. Also noted: host or cells: HEKneo-P (pooled neonatal human epidermal keratinocytes). To be noted: 24 hours. From the text:
Cell lines suitable for use in the assay, normal human peripheral blood mononuclear cells (PBMCs) or Human Epidermal Keratinocytes (neonatal) (HEKs), can be obtained from commercial sources, such as Cascade Biologics, Portland, Oreg. or 4C Biotech, Seneffe, Belgium, or from the ATCC (American Type Culture Collection). ATCC normal human fibroblast cell lines, which can be located on the ATCC web site, include for example, CCL135, CCL137, and CCL151.
PBMC Isolation. Blood was collected in sodium heparin vacutainers and pooled into a single 50 mL polypropylene tube. Blood was diluted 1:1 with 1×PBS and mixed thoroughly by inversion. 25 mL of diluted blood was layered over 12 mL of Lympholyte-H (Cedarlane Laboratories) and centrifuged at room temperature for 20 min at 800 g. […]
Culture Conditions. The cells were counted using Trypan Blue exclusion and resuspended in complete media that is supplemented with 50 Units of hIL-2/mL so that final concentration of cells is 1×10^6/mL. […] At least once a week, cells are counted and media level is adjusted to keep cells around 5—10^5/mL. […]
Treatment with Analogs. After 10-14 days in culture, cells were counted and resuspended in conditioned media at a concentration of 1×10^6/mL. […]
TRAP Reaction and Gel. Samples were analyzed using a 1-step TRAP PCR reaction. […]

Data set [4] in a line: Plasma levels and bioavailability in rats. To be noted: male, Sprague Dawley, rat, in vivo, po, 10 mg/kg. The method, then:
The plasma levels of a compound following a single intravenous and oral administration in carotid artery-cannulated male Sprague Dawley rats was determined. Plasma samples were collected and used to determine the plasma concentration of the compound and metabolites. In addition tissue samples, including whisker samples and PBMC cells were collected for telomerase activity analysis.
Carotid artery-cannulated male Sprague Dawley rats were divided into treatment groups according to Table 6. The rats were provided ad libitum SLAC-MO1 # YY080208 (Shanghai Laboratories Animal Center, Shanghai, China) throughout the in-life portion of the study with the exception of the overnight fasting period prior to oral dosing. Water was available ad libitum.
The compounds were dissolved in 2% EtOH/98% water to yield a final concentration of 2.5 mg/ml and 1 mg/ml for both intravenous and oral administration, respectively. The concentration of each compound was confirmed by HPLC analysis.
Body weights were taken on the day of dose administration. Dose volume was determined based on individual body weight taken on day of dosing.
Blood samples (approximately 250 μL) were collected via cannulae into tubes containing K2-EDTA anticoagulant and 1 mg/ml NaF at the various time points. Blood was stored on ice and then plasma separated via centrifugation (8000 rpm×6 minutes). The plasma was stored at […] until LC-MS/MS analysis.
Percentage of bioavailability was calculated.

Read-outs that look alike come from different tables or passages of the source.

T1 sequence (O14746 whole entry): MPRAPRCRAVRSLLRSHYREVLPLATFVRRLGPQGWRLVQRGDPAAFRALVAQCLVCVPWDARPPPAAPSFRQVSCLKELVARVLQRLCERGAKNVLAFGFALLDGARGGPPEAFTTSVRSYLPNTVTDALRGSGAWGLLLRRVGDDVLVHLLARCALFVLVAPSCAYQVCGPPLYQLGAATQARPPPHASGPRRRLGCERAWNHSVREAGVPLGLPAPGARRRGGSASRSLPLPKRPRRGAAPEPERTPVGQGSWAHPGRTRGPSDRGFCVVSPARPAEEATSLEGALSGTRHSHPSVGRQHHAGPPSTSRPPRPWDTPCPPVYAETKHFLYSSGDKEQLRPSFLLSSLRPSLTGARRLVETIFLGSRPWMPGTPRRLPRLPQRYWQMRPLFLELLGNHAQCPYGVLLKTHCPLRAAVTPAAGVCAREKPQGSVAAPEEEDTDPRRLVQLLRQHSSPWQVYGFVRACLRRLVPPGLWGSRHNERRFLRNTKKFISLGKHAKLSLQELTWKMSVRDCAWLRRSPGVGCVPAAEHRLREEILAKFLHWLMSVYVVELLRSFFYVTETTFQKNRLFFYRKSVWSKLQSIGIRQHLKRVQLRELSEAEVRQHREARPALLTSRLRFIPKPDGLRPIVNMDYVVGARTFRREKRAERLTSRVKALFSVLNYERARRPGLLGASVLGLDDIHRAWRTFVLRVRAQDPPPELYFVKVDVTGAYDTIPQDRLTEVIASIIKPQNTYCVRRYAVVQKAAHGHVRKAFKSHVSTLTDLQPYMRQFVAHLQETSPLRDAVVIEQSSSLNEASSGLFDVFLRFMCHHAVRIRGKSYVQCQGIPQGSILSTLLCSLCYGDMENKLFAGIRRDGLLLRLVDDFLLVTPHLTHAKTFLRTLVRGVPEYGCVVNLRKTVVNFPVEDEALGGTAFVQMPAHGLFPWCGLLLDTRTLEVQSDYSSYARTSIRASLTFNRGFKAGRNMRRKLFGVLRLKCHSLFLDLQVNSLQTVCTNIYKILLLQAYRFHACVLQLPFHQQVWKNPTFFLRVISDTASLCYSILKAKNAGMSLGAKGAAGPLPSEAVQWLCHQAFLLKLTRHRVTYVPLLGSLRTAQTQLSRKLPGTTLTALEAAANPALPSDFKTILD

As to `CC(C)(O)[C@@H]1CC[C@](C)([C@H]2[C@@H](O)C[C@@]3(C)[C@@H]4C[C@H](O)[C@H]5C(C)(C)[C@@H](O)CC[C@@]56C[C@@]46CC[C@]23C)O1` [Compound 2, 17-[5-(1-Hydroxy-1-methyl-ethyl)-2-methyl-tetrahydro-furan-2-yl]-4,4,13,14-tetramethyl-tetradecahydro-cyclopropa[9,10]cyclopenta[a]phenanthrene-3β,6α,16β-triol, reference compound], the “Bioavailability % F” value came out at 3% in data set [1] and 22.6% in data set [4]. Moreover, at telomerase [2], the “Max fold increase of activity” value was 3.3 fold. Further, the “Activity in in vitro HEK assay” value at telomerase [2] (24 hr, 0.01 to 10 μM, vs vehicle control at peak of full dose curve) is on record as “+ (telomerase activation is 2 fold or more in comparison with vehicle control at the peak of the full dose curve.)”. Besides, a half-maximal response at telomerase [2] (telomerase activation) (EC50) required 0.03 µM. Moreover, on telomerase [3], the “Fold increase at 1 μM” value is listed as 1.6-20.7 fold.
